Experimental data reported in patent EP0726263A2, “Herbicidal (1,3,4)oxadiazoles and thiadiazoles” (American Cyanamid Company, priority 1995, dated 1996).

How the values were obtained:
Assay type in all cases: in vivo
Abutilon theophrasti [1] = experiment: Herbicidal activity, preemergence test; conditions: pre; sprayed onto soil, 800 g of active material per hectare; evaluated 3 weeks after treatment
Protocol: (§1) To evaluate their herbicidal activity, compounds according to the invention are tested using a representative range of plants: TRZAW Triticum aestivum HORVW Hordeum vulgare ZEAMX Zea mays GOSHI Gossypium hirsutum HELAN Helianthus annuus GLYMA Glycine max ALOMY Alopecurus myosuroides SETVI Setaria viridis ECHCG Echinochloa crus-galli GALAP Galium aparine STEME Stellaria media VERPE Veronica persica VIOAR Viola arvensis IPOHE Ipomoea hederacea LAMPU Lamium purpureum PAPRH Papaver rhoeas MATIN Matricaria inodora AMARE Amaranthus retroflexus ABUTH Abutilon theophrasti AMBEL Ambrosia artemisifolia CHEAL Chenopodium album
(§2) The tests fall into two categories, preemergence and postemergence. The preemergence tests involve spraying a liquid formulation of the compound onto the soil in which the seeds have recently been sown. The postemergence tests involve spraying a liquid formulation of the compound onto seedling plants.
(§3) The soil used in the tests is a prepared horticultural loam.
(§4) The formulations used in the tests are prepared from solutions of the test compounds in acetone containing 0.4% by weight of an alkylphenol/ethylene oxide condensate available under the trade mark TRITON X-155. These acetone solutions are diluted with water and the resulting formulations applied at dosage levels corresponding to 800 g of active material per hectare in a volume equivalent to 900 litres per hectare.
(§5) In the preemergence tests untreated sown soil and in the postemergence tests untreated soil bearing seedling plants are used as controls.
(§6) Results of herbicide evaluation are expressed on a rating scale (0-9). The scale is based upon a visual observation of plant stand, vigor, malformation, size, chlorosis, and general plant appearance as compared to a control. Preemergence and postemergence treatments are evaluated at 3 and 2 weeks after treatment, respectively.

Alopecurus myosuroides [2] = experiment: Herbicidal activity, preemergence test; conditions: pre; sprayed onto soil, 800 g of active material per hectare; evaluated 3 weeks after treatment
Protocol: as §1, §2, §3, §4, §5, §6

Amaranthus retroflexus [3] = experiment: Herbicidal activity, preemergence test; conditions: pre; sprayed onto soil, 800 g of active material per hectare; evaluated 3 weeks after treatment
Protocol: as §1, §2, §3, §4, §5, §6

Ambrosia artemisifolia [4] = experiment: Herbicidal activity, preemergence test; conditions: pre; sprayed onto soil, 800 g of active material per hectare; evaluated 3 weeks after treatment
Protocol: as §1, §2, §3, §4, §5, §6

Chenopodium album [5] = experiment: Herbicidal activity, preemergence test; conditions: pre; sprayed onto soil, 800 g of active material per hectare; evaluated 3 weeks after treatment
Protocol: as §1, §2, §3, §4, §5, §6

Galium aparine [6] = experiment: Herbicidal activity, preemergence test; conditions: pre; sprayed onto soil, 800 g of active material per hectare; evaluated 3 weeks after treatment
Protocol: as §1, §2, §3, §4, §5, §6

Glycine max [7] = experiment: Herbicidal activity, preemergence test; conditions: pre; sprayed onto soil, 800 g of active material per hectare; evaluated 3 weeks after treatment
Protocol: as §1, §2, §3, §4, §5, §6

Gossypium hirsutum [8] = experiment: Herbicidal activity, preemergence test; conditions: pre; sprayed onto soil, 800 g of active material per hectare; evaluated 3 weeks after treatment
Protocol: as §1, §2, §3, §4, §5, §6

Hordeum vulgare [9] = experiment: Herbicidal activity, preemergence test; conditions: pre; sprayed onto soil, 800 g of active material per hectare; evaluated 3 weeks after treatment
Protocol: as §1, §2, §3, §4, §5, §6

Ipomoea hederacea [10] = experiment: Herbicidal activity, preemergence test; conditions: pre; sprayed onto soil, 800 g of active material per hectare; evaluated 3 weeks after treatment
Protocol: as §1, §2, §3, §4, §5, §6

Lamium purpureum [11] = experiment: Herbicidal activity, preemergence test; conditions: pre; sprayed onto soil, 800 g of active material per hectare; evaluated 3 weeks after treatment
Protocol: as §1, §2, §3, §4, §5, §6

Matricaria inodora [12] = experiment: Herbicidal activity, preemergence test; conditions: pre; sprayed onto soil, 800 g of active material per hectare; evaluated 3 weeks after treatment
Protocol: as §1, §2, §3, §4, §5, §6

Papaver rhoeas [13] = experiment: Herbicidal activity, preemergence test; conditions: pre; sprayed onto soil, 800 g of active material per hectare; evaluated 3 weeks after treatment
Protocol: as §1, §2, §3, §4, §5, §6

Setaria viridis [14] = experiment: Herbicidal activity, preemergence test; conditions: pre; sprayed onto soil, 800 g of active material per hectare; evaluated 3 weeks after treatment
Protocol: as §1, §2, §3, §4, §5, §6

Stellaria media [15] = experiment: Herbicidal activity, preemergence test; conditions: pre; sprayed onto soil, 800 g of active material per hectare; evaluated 3 weeks after treatment
Protocol: as §1, §2, §3, §4, §5, §6

Triticum aestivum [16] = experiment: Herbicidal activity, preemergence test; conditions: pre; sprayed onto soil, 800 g of active material per hectare; evaluated 3 weeks after treatment
Protocol: as §1, §2, §3, §4, §5, §6

Veronica persica [17] = experiment: Herbicidal activity, preemergence test; conditions: pre; sprayed onto soil, 800 g of active material per hectare; evaluated 3 weeks after treatment
Protocol: as §1, §2, §3, §4, §5, §6

Zea mays [18] = experiment: Herbicidal activity, preemergence test; conditions: pre; sprayed onto soil, 800 g of active material per hectare; evaluated 3 weeks after treatment
Protocol: as §1, §2, §3, §4, §5, §6

Abutilon theophrasti [19] = experiment: Herbicidal activity, postemergence test; conditions: post; sprayed onto seedling plants, 800 g of active material per hectare; evaluated 2 weeks after treatment
Protocol: as §1, §2, §3, §4, §5, §6

Alopecurus myosuroides [20] = experiment: Herbicidal activity, postemergence test; conditions: post; sprayed onto seedling plants, 800 g of active material per hectare; evaluated 2 weeks after treatment
Protocol: as §1, §2, §3, §4, §5, §6

Amaranthus retroflexus [21] = experiment: Herbicidal activity, postemergence test; conditions: post; sprayed onto seedling plants, 800 g of active material per hectare; evaluated 2 weeks after treatment
Protocol: as §1, §2, §3, §4, §5, §6

Ambrosia artemisifolia [22] = experiment: Herbicidal activity, postemergence test; conditions: post; sprayed onto seedling plants, 800 g of active material per hectare; evaluated 2 weeks after treatment
Protocol: as §1, §2, §3, §4, §5, §6

Chenopodium album [23] = experiment: Herbicidal activity, postemergence test; conditions: post; sprayed onto seedling plants, 800 g of active material per hectare; evaluated 2 weeks after treatment
Protocol: as §1, §2, §3, §4, §5, §6

Galium aparine [24] = experiment: Herbicidal activity, postemergence test; conditions: post; sprayed onto seedling plants, 800 g of active material per hectare; evaluated 2 weeks after treatment
Protocol: as §1, §2, §3, §4, §5, §6

Glycine max [25] = experiment: Herbicidal activity, postemergence test; conditions: post; sprayed onto seedling plants, 800 g of active material per hectare; evaluated 2 weeks after treatment
Protocol: as §1, §2, §3, §4, §5, §6

Gossypium hirsutum [26] = experiment: Herbicidal activity, postemergence test; conditions: post; sprayed onto seedling plants, 800 g of active material per hectare; evaluated 2 weeks after treatment
Protocol: as §1, §2, §3, §4, §5, §6

Hordeum vulgare [27] = experiment: Herbicidal activity, postemergence test; conditions: post; sprayed onto seedling plants, 800 g of active material per hectare; evaluated 2 weeks after treatment
Protocol: as §1, §2, §3, §4, §5, §6

Ipomoea hederacea [28] = experiment: Herbicidal activity, postemergence test; conditions: post; sprayed onto seedling plants, 800 g of active material per hectare; evaluated 2 weeks after treatment
Protocol: as §1, §2, §3, §4, §5, §6

Lamium purpureum [29] = experiment: Herbicidal activity, postemergence test; conditions: post; sprayed onto seedling plants, 800 g of active material per hectare; evaluated 2 weeks after treatment
Protocol: as §1, §2, §3, §4, §5, §6

Matricaria inodora [30] = experiment: Herbicidal activity, postemergence test; conditions: post; sprayed onto seedling plants, 800 g of active material per hectare; evaluated 2 weeks after treatment
Protocol: as §1, §2, §3, §4, §5, §6

Papaver rhoeas [31] = experiment: Herbicidal activity, postemergence test; conditions: post; sprayed onto seedling plants, 800 g of active material per hectare; evaluated 2 weeks after treatment
Protocol: as §1, §2, §3, §4, §5, §6

Setaria viridis [32] = experiment: Herbicidal activity, postemergence test; conditions: post; sprayed onto seedling plants, 800 g of active material per hectare; evaluated 2 weeks after treatment
Protocol: as §1, §2, §3, §4, §5, §6

Stellaria media [33] = experiment: Herbicidal activity, postemergence test; conditions: post; sprayed onto seedling plants, 800 g of active material per hectare; evaluated 2 weeks after treatment
Protocol: as §1, §2, §3, §4, §5, §6

Triticum aestivum [34] = experiment: Herbicidal activity, postemergence test; conditions: post; sprayed onto seedling plants, 800 g of active material per hectare; evaluated 2 weeks after treatment
Protocol: as §1, §2, §3, §4, §5, §6

Veronica persica [35] = experiment: Herbicidal activity, postemergence test; conditions: post; sprayed onto seedling plants, 800 g of active material per hectare; evaluated 2 weeks after treatment
Protocol: as §1, §2, §3, §4, §5, §6

Zea mays [36] = experiment: Herbicidal activity, postemergence test; conditions: post; sprayed onto seedling plants, 800 g of active material per hectare; evaluated 2 weeks after treatment
Protocol: as §1, §2, §3, §4, §5, §6

C[C@H](NC(=O)c1nnc(-c2ccccc2F)o1)c1ccccc1 [Example 10]
ABUTH control rating (0-9) (Abutilon theophrasti [1]): 0 (no effect)
ALOMY control rating (0-9) (Alopecurus myosuroides [2]): 1 (trace effect)
AMARE control rating (0-9) (Amaranthus retroflexus [3]): 8 (approaching complete kill)
AMBEL control rating (0-9) (Ambrosia artemisifolia [4]): 3 (moderate effect)
CHEAL control rating (0-9) (Chenopodium album [5]): 8 (approaching complete kill)
GALAP control rating (0-9) (Galium aparine [6]): 0 (no effect)
GLXMA control rating (0-9) (Glycine max [7]): 2 (slight effect)
GOSHI control rating (0-9) (Gossypium hirsutum [8]): 0 (no effect)
HORVW control rating (0-9) (Hordeum vulgare [9]): 0 (no effect)
IPOHE control rating (0-9) (Ipomoea hederacea [10]): 0 (no effect)
LAMPU control rating (0-9) (Lamium purpureum [11]): 8 (approaching complete kill)
MATIN control rating (0-9) (Matricaria inodora [12]): 8 (approaching complete kill)
PAPRH control rating (0-9) (Papaver rhoeas [13]): 9 (complete kill)
SETVI control rating (0-9) (Setaria viridis [14]): 3 (moderate effect)
STEME control rating (0-9) (Stellaria media [15]): 9 (complete kill)
TRZAW control rating (0-9) (Triticum aestivum [16]): 0 (no effect)
VERPE control rating (0-9) (Veronica persica [17]): 9 (complete kill)
ZEAMX control rating (0-9) (Zea mays [18]): 0 (no effect)
ABUTH control rating (0-9) (Abutilon theophrasti [19]): 9 (complete kill)
ALOMY control rating (0-9) (Alopecurus myosuroides [20]): 0 (no effect)
AMARE control rating (0-9) (Amaranthus retroflexus [21]): 9 (complete kill)
AMBEL control rating (0-9) (Ambrosia artemisifolia [22]): 7 (good herbicidal effect)
CHEAL control rating (0-9) (Chenopodium album [23]): 7 (good herbicidal effect)
GALAP control rating (0-9) (Galium aparine [24]): 6 (herbicidal effect)
GLXMA control rating (0-9) (Glycine max [25]): 4 (injury)
GOSHI control rating (0-9) (Gossypium hirsutum [26]): 8 (approaching complete kill)
HORVW control rating (0-9) (Hordeum vulgare [27]): 4 (injury)
IPOHE control rating (0-9) (Ipomoea hederacea [28]): 8 (approaching complete kill)
LAMPU control rating (0-9) (Lamium purpureum [29]): 8 (approaching complete kill)
MATIN control rating (0-9) (Matricaria inodora [30]): 0 (no effect)
PAPRH control rating (0-9) (Papaver rhoeas [31]): 8 (approaching complete kill)
SETVI control rating (0-9) (Setaria viridis [32]): 9 (complete kill)
STEME control rating (0-9) (Stellaria media [33]): 9 (complete kill)
TRZAW control rating (0-9) (Triticum aestivum [34]): 2 (slight effect)
VERPE control rating (0-9) (Veronica persica [35]): 9 (complete kill)
ZEAMX control rating (0-9) (Zea mays [36]): 3 (moderate effect)
